Data from EP1007530B1, “6-O-SUBSTITUTED ERYTHROMYCIN COMPOUNDS AND METHOD FOR MAKING SAME” (ABBOTT LABORATORIES, priority 1996, dated 1997).

Columns and labels:
Experiment in all cases: In vitro assay of antibacterial activity (agar dilution MIC)
Assay type in all cases: cell-based
[1] = system: Actinetobacter calcoaceticus CMX 669; conditions: BHI agar, 35-37 °C, 20 to 24 hours, unit assumed
Procedure: (§1) Representative compounds of the present invention were assayed in vitro for antibacterial activity as follows: Twelve petri dishes containing successive aqueous dilutions of the test compound mixed with 10 mL of sterilized Brain Heart Infusion (BHI) agar (Difco 0418-01-5) were prepared. Each plate was inoculated with 1:100 (or 1:10 for slow-growing strains, such as Micrococcus and Streptococcus) dilutions of up to 32 different microorganisms, using a Steers replicator block. The inoculated plates were incubated at 35-37 °C for 20 to 24 hours, In addition, a control plate, using BHI agar containing no test compound, was prepared and incubated at the beginning and end of each test.
(§2) An additional plate containing a compound having known susceptibility patterns for the organisms being tested and belonging to the same antibiotic class as the test compound was also prepared and incubated as a further control, as well as to provide test-to-test comparability.
(§3) After incubation, each plate was visually inspected. The minimum inhibitory concentration (MIC) was defined as the lowest concentration of drug yielding no growth, a slight haze, or sparsely isolated colonies on the inoculum spot as compared to the growth control. […]

[2] = system: Staphylococcus aureus A5177; conditions: BHI agar, 35-37 °C, 20 to 24 hours, unit assumed
Procedure: as §1, §2, §3

[3] = system: Staphylococcus aureus ATCC 6538P; conditions: BHI agar, 35-37 °C, 20 to 24 hours, unit assumed
Procedure: as §1
as §2, with “comparability. Erythromycin A was used for this purpose.” for “comparability.”
as §3

[4] = system: Escherichia coli JUHL; conditions: BHI agar, 35-37 °C, 20 to 24 hours, in µg/mL (unit assumed)
Procedure: as §1
as §2, with “comparability. Erythromycin A was used for this purpose.” for “comparability.”
as §3

[5] = system: Streptococcus bovis A-5169; conditions: BHI agar, 35-37 °C, 20 to 24 hours, unit assumed
Procedure: as §1
as §2, with “comparability. Erythromycin A was used for this purpose.” for “comparability.”
as §3

[6] = system: Streptococcus pyogenes PIU 2548; conditions: BHI agar, 35-37 °C, 20 to 24 hours, unit assumed
Procedure: as §1
as §2, with “comparability. Erythromycin A was used for this purpose.” for “comparability.”
as §3

[7] = system: Pseudomonas aeruginosa K799/WT; conditions: BHI agar, 35-37 °C, 20 to 24 hours, unit assumed
Procedure: as §1
as §2, with “comparability. Erythromycin A was used for this purpose.” for “comparability.”
as §3

[8] = system: Nocarrdia asteroides ATCC 9970; conditions: BHI agar, 35-37 °C, 20 to 24 hours, unit assumed
Procedure: as §1
as §2, with “comparability. Erythromycin A was used for this purpose.” for “comparability.”
as §3

[9] = system: Pseudomonas capacia 2961; conditions: BHI agar, 35-37 °C, 20 to 24 hours, in µg/mL (unit assumed)
Procedure: as §1
as §2, with “comparability. Erythromycin A was used for this purpose.” for “comparability.”
as §3

[10] = system: Staphylococcus aureus CMX 642A; conditions: BHI agar, 35-37 °C, 20 to 24 hours, unit assumed
Procedure: as §1
as §2, with “comparability. Erythromycin A was used for this purpose.” for “comparability.”
as §3

[11] = system: Pseudomonas aeruginosa K799/61; conditions: BHI agar, 35-37 °C, 20 to 24 hours, unit assumed
Procedure: as §1
as §2, with “comparability. Erythromycin A was used for this purpose.” for “comparability.”
as §3

[12] = system: Staphylococcus aureus CMX 553; conditions: BHI agar, 35-37 °C, 20 to 24 hours, unit assumed
Procedure: as §1
as §2, with “comparability. Erythromycin A was used for this purpose.” for “comparability.”
as §3

[13] = system: Micrococcus luteus ATCC 4698; conditions: BHI agar, 35-37 °C, 20 to 24 hours, unit assumed
Procedure: as §1
as §2, with “comparability. Erythromycin A was used for this purpose.” for “comparability.”
as §3

[14] = system: Klebsiella pneumoniae ATCC 8045; conditions: BHI agar, 35-37 °C, 20 to 24 hours, unit assumed
Procedure: as §1
as §2, with “comparability. Erythromycin A was used for this purpose.” for “comparability.”
as §3

[15] = system: Escherichia coli H560; conditions: BHI agar, 35-37 °C, 20 to 24 hours, unit assumed
Procedure: as §1
as §2, with “comparability. Erythromycin A was used for this purpose.” for “comparability.”
as §3

[16] = system: Enterococcus faecium ATCC 8043; conditions: BHI agar, 35-37 °C, 20 to 24 hours, unit assumed
Procedure: as §1
as §2, with “comparability. Erythromycin A was used for this purpose.” for “comparability.”
as §3

[17] = system: Streptococcus agalactiae CMX 508; conditions: BHI agar, 35-37 °C, 20 to 24 hours, unit assumed
Procedure: as §1
as §2, with “comparability. Erythromycin A was used for this purpose.” for “comparability.”
as §3

[18] = system: Streptococcus pyogenes EES61; conditions: BHI agar, 35-37 °C, 20 to 24 hours, unit assumed
Procedure: as §1
as §2, with “comparability. Erythromycin A was used for this purpose.” for “comparability.”
as §3

[19] = system: Streptococcus pyogenes 930; conditions: BHI agar, 35-37 °C, 20 to 24 hours, unit assumed
Procedure: as §1
as §2, with “comparability. Erythromycin A was used for this purpose.” for “comparability.”
as §3

[20] = system: Candida albicans CCH 442; conditions: BHI agar, 35-37 °C, 20 to 24 hours, unit assumed
Procedure: as §1
as §2, with “comparability. Erythromycin A was used for this purpose.” for “comparability.”
as §3

[21] = system: Staphylococcus epidermidis 3519; conditions: BHI agar, 35-37 °C, 20 to 24 hours, unit assumed
Procedure: as §1
as §2, with “comparability. Erythromycin A was used for this purpose.” for “comparability.”
as §3

[22] = system: Staphylococcus aureus NCTC10649M; conditions: BHI agar, 35-37 °C, 20 to 24 hours, unit assumed
Procedure: as §1
as §2, with “comparability. Erythromycin A was used for this purpose.” for “comparability.”
as §3

[23] = system: Escherichia coli SS; conditions: BHI agar, 35-37 °C, 20 to 24 hours, unit assumed
Procedure: as §1
as §2, with “comparability. Erythromycin A was used for this purpose.” for “comparability.”
as §3

[24] = system: Pseudomonas aeruginosa BMH10; conditions: BHI agar, 35-37 °C, 20 to 24 hours, in µg/mL (unit assumed)
Procedure: as §1
as §2, with “comparability. Erythromycin A was used for this purpose.” for “comparability.”
as §3

[25] = system: Pseudomonas aeruginosa 5007; conditions: BHI agar, 35-37 °C, 20 to 24 hours, unit assumed
Procedure: as §1
as §2, with “comparability. Erythromycin A was used for this purpose.” for “comparability.”
as §3

[26] = system: Providencia struartii CMX 640; conditions: BHI agar, 35-37 °C, 20 to 24 hours, unit assumed
Procedure: as §1
as §2, with “comparability. Erythromycin A was used for this purpose.” for “comparability.”
as §3

[27] = system: Mycobacterium smegmatis ATCC 114; conditions: BHI agar, 35-37 °C, 20 to 24 hours, unit assumed
Procedure: as §1
as §2, with “comparability. Erythromycin A was used for this purpose.” for “comparability.”
as §3

[28] = system: Escherichia coli KNK 437; conditions: BHI agar, 35-37 °C, 20 to 24 hours, unit assumed
Procedure: as §1
as §2, with “comparability. Erythromycin A was used for this purpose.” for “comparability.”
as §3

[29] = system: Enterobacter aerogenes ATCC 13048; conditions: BHI agar, 35-37 °C, 20 to 24 hours, unit assumed
Procedure: as §1
as §2, with “comparability. Erythromycin A was used for this purpose.” for “comparability.”
as §3

[30] = system: Escherichia coli DC-2; conditions: BHI agar, 35-37 °C, 20 to 24 hours, unit assumed
Procedure: as §1
as §2, with “comparability. Erythromycin A was used for this purpose.” for “comparability.”
as §3

[31] = system: Staphylococcus aureus A-5278; conditions: BHI agar, 35-37 °C, 20 to 24 hours, unit assumed
Procedure: as §1
as §2, with “comparability. Erythromycin A was used for this purpose.” for “comparability.”
as §3

[32] = system: Micrococcus luteus ATCC 9341; conditions: BHI agar, 35-37 °C, 20 to 24 hours, unit assumed
Procedure: as §1
as §2, with “comparability. Erythromycin A was used for this purpose.” for “comparability.”
as §3

[33] = system: Staphylococcus aureus 1775; conditions: BHI agar, 35-37 °C, 20 to 24 hours, unit assumed
Procedure: as §1
as §2, with “comparability. Erythromycin A was used for this purpose.” for “comparability.”
as §3

[34] = system: Pseudomonas aeruginosa DPHD-2862; conditions: BHI agar, 35-37 °C, 20 to 24 hours, unit assumed
Procedure: as §1
as §2, with “comparability. Erythromycin A was used for this purpose.” for “comparability.”
as §3

[35] = system: Pseudomonas aeruginosa DPHD-5263; conditions: BHI agar, 35-37 °C, 20 to 24 hours, in µg/mL (unit assumed)
Procedure: as §1
as §2, with “comparability. Erythromycin A was used for this purpose.” for “comparability.”
as §3

CC[C@H]1OC(=O)[C@H](C)[C@@H](O[C@H]2C[C@@](C)(OC)[C@@H](O)[C@H](C)O2)[C@H](C)[C@@H](O[C@@H]2O[C@H](C)C[C@H](N(C)C)[C@H]2O)[C@](C)(OCC=O)C[C@@H](C)C(=O)[C@H](C)[C@@H](O)[C@]1(C)O [Example 8, Compound of Formula (X): X is =O, R is 2-oxoethyl]
MIC [1]: 50 µg/mL | MIC [2]: 12.5 µg/mL | MIC [3]: 0.78 µg/mL | MIC [4]: 100 | MIC [5]: 0.2 µg/mL | MIC [6]: 25 µg/mL | MIC [7]: > 100 µg/mL | MIC [8]: 0.39 µg/mL | MIC [9]: > 100 | MIC [10]: 0.78 µg/mL | MIC [11]: 3.1 µg/mL | MIC [12]: 0.78 µg/mL | MIC [13]: 1.56 µg/mL | MIC [14]: > 100 µg/mL | MIC [15]: 50 µg/mL | MIC [16]: 0.39 µg/mL | MIC [17]: 0.39 µg/mL | MIC [18]: 0.1 µg/mL | MIC [19]: > 100 µg/mL | MIC [20]: > 100 µg/mL | MIC [21]: 0.78 µg/mL | MIC [22]: 0.78 µg/mL | MIC [23]: 1.56 µg/mL | MIC [24]: > 100 | MIC [25]: > 100 µg/mL | MIC [26]: > 100 µg/mL | MIC [27]: 6.2 µg/mL | MIC [28]: > 100 µg/mL | MIC [29]: > 100 µg/mL | MIC [30]: > 100 µg/mL | MIC [31]: > 100 µg/mL | MIC [32]: 0.1 µg/mL | MIC [33]: > 100 µg/mL | MIC [34]: > 100 µg/mL | MIC [35]: > 100

CC[C@H]1OC(=O)[C@H](C)[C@@H](O[C@H]2C[C@@](C)(OC)[C@@H](O)[C@H](C)O2)[C@H](C)[C@@H](O[C@@H]2O[C@H](C)C[C@H](N(C)C)[C@H]2O)[C@](C)(OCC(O)CN=[N+]=[N-])C[C@@H](C)C(=O)[C@H](C)[C@@H](O)[C@]1(C)O (some centres unmarked) [Example 11, Compound of Formula (X): X is =O, R is -CH2-CHOH-CH2-N3]
MIC [1]: 25 µg/mL | MIC [2]: 6.2 µg/mL | MIC [3]: 0.78 µg/mL | MIC [4]: 100 | MIC [5]: 0.2 µg/mL | MIC [6]: 25 µg/mL | MIC [7]: > 100 µg/mL | MIC [8]: 0.1 µg/mL | MIC [9]: > 100 | MIC [10]: 1.56 µg/mL | MIC [12]: 0.78 µg/mL | MIC [14]: > 100 µg/mL | MIC [15]: 50 µg/mL | MIC [16]: 0.39 µg/mL | MIC [17]: 0.05 µg/mL | MIC [18]: 0.05 µg/mL | MIC [19]: > 100 µg/mL | MIC [20]: > 100 µg/mL | MIC [21]: 0.78 µg/mL | MIC [22]: 0.78 µg/mL | MIC [23]: 1.56 µg/mL | MIC [24]: > 100 | MIC [25]: > 100 µg/mL | MIC [26]: > 100 µg/mL | MIC [27]: 0.39 µg/mL | MIC [28]: > 100 µg/mL | MIC [29]: > 100 µg/mL | MIC [30]: > 100 µg/mL | MIC [31]: > 100 µg/mL | MIC [32]: 0.05 µg/mL | MIC [33]: > 100 µg/mL | MIC [34]: > 100 µg/mL | MIC [35]: > 100
